Source: PubChem BioAssay (NCI)
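Here, GI50 denotes the concentration required for 50% inhibition of growth. At the TGI there is no net growth.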

Tests used:
Assay in all cases: NCI-60 cell line screen, 384-well format
[1] = system: 786-0 renal
[2] = system: A498 renal
[3] = system: A549 NSCLC
[4] = system: ACHN renal
[5] = system: BT-549 breast
[6] = system: CAKI-1 renal
[7] = system: CCRF-CEM leukemia
[8] = system: COLO 205 colon
[9] = system: DU-145 prostate
[10] = system: EKVX NSCLC
[11] = system: HCC-2998 colon
[12] = system: HCT-116 colon
[13] = system: HCT-15 colon
[14] = system: HL-60(TB) leukemia
[15] = system: HOP-62 NSCLC
[16] = system: HOP-92 NSCLC
[17] = system: HS 578T breast
[18] = system: HT29 colon
[19] = system: IGROV1 ovarian
[20] = system: K-562 leukemia
[21] = system: KM12 colon
[22] = system: LOX IMVI melanoma
[23] = system: M14 melanoma
[24] = system: MALME-3M melanoma
[25] = system: MCF7 breast
[26] = system: MDA-MB-231 breast
[27] = system: MDA-MB-435 melanoma
[28] = system: MDA-MB-468 breast
[29] = system: MOLT-4 leukemia
[30] = system: NCI-H226 lung
[31] = system: NCI-H23 lung
[32] = system: NCI-H322M lung
[33] = system: NCI-H460 NSCLC
[34] = system: NCI-H522 lung
[35] = system: NCI/ADR-RES ovarian
[36] = system: OVCAR-3 ovarian
[37] = system: OVCAR-4 ovarian
[38] = system: OVCAR-5 ovarian
[39] = system: OVCAR-8 ovarian
[40] = system: PC-3 prostate
[41] = system: RPMI-8226 leukemia
[42] = system: RXF 393 renal
[43] = system: SF-268 CNS
[44] = system: SF-295 CNS
[45] = system: SF-539 CNS
[46] = system: SK-MEL-2 melanoma
[47] = system: SK-MEL-28 melanoma
[48] = system: SK-MEL-5 melanoma
[49] = system: SK-OV-3 ovarian
[50] = system: SN12C renal
[51] = system: SNB-19 CNS
[52] = system: SNB-75 CNS
[53] = system: SR leukemia
[54] = system: SW-620 colon
[55] = system: T-47D breast
[56] = system: TK-10 renal
[57] = system: U251 glioblastoma
[58] = system: UACC-257 melanoma
[59] = system: UACC-62 melanoma

With `Nc1ncn([C@H]2CC(O)[C@@H](CO)S2)c(=O)n1` (stereo partly specified) the GI50 [1] was 178 nM, the TGI [1] was 10900 nM and the GI50 [2] was 146 nM. The TGI [2] was 2650 nM, the GI50 [3] was 155 nM and the TGI [3] was 3050 nM. The GI50 [4] was 111 nM, the TGI [4] was 11700 nM and the GI50 [5] was 619 nM. It also gave a TGI [5] of 6520 nM, a GI50 [6] of 266 nM and a TGI [6] of 14700 nM. The GI50 [7] was 17.3 nM, the TGI [7] was 595 nM and the GI50 [8] was 239 nM. For the same compound, the TGI [8] was 1760 nM, the GI50 [9] was 366 nM and the GI50 [10] was 3160 nM. The TGI [10] was over 75400 nM, the GI50 [11] was 124 nM and the TGI [11] was 3280 nM. For the same compound, the GI50 [12] was 55.8 nM, the TGI [12] was 5340 nM and the GI50 [13] was 1090 nM. It also gave a TGI [13] of 22100 nM, a GI50 [14] of 114 nM and a TGI [14] of 573 nM. It also gave a GI50 [15] of 417 nM, a TGI [15] of 5260 nM and a GI50 [16] of 284 nM. For the same compound, the TGI [16] was over 100000 nM, the GI50 [17] was 1580 nM and the TGI [17] was 17900 nM. It also gave a GI50 [18] of 1360 nM, a TGI [18] of over 77800 nM and a GI50 [19] of 2780 nM. It also gave a TGI [19] of over 100000 nM, a GI50 [20] of 200 nM and a TGI [20] of 12600 nM. The GI50 [21] was 441 nM, the TGI [21] was over 100000 nM and the GI50 [22] was 534 nM. It also gave a TGI [22] of 3410 nM, a GI50 [23] of 2340 nM and a TGI [23] of 17600 nM. For the same compound, the GI50 [24] was 257 nM, the TGI [24] was 2030 nM and the GI50 [25] was 256 nM. For the same compound, the TGI [25] was over 100000 nM, the GI50 [26] was 251 nM and the TGI [26] was 3420 nM. For the same compound, the GI50 [27] was 1120 nM, the TGI [27] was over 100000 nM and the GI50 [28] was 153 nM. It also gave a TGI [28] of 741 nM, a TGI [29] of 14.4 nM and a GI50 [30] of 1710 nM. It also gave a TGI [30] of 20700 nM, a GI50 [31] of 272 nM and a TGI [31] of 1800 nM. For the same compound, the GI50 [32] was 1320 nM, the TGI [32] was over 100000 nM and the GI50 [33] was 39.9 nM. The TGI [33] was 491 nM, the GI50 [34] was 50.1 nM and the TGI [34] was 529 nM. It also gave a GI50 [35] of 139 nM, a TGI [35] of 1260 nM and a GI50 [36] of 461 nM. It also gave a TGI [36] of 7090 nM, a GI50 [37] of 2610 nM and a TGI [37] of over 100000 nM. The GI50 [38] was 3190 nM, the TGI [38] was over 100000 nM and the GI50 [39] was 82.2 nM. It also gave a TGI [39] of 2690 nM, a GI50 [40] of 1270 nM and a TGI [40] of over 75100 nM. For the same compound, the GI50 [41] was 622 nM, the TGI [41] was 2680 nM and the GI50 [42] was 839 nM. For the same compound, the TGI [42] was 15100 nM, the GI50 [43] was 1240 nM and the TGI [43] was 24000 nM. The GI50 [44] was 7650 nM, the TGI [44] was over 74700 nM and the GI50 [45] was 2020 nM. It also gave a TGI [45] of 45000 nM, a GI50 [46] of 253 nM and a TGI [46] of 691 nM. The GI50 [47] was 340 nM, the TGI [47] was 2750 nM and the GI50 [48] was 70.6 nM. It also gave a TGI [48] of 1330 nM, a GI50 [49] of 1820 nM and a TGI [49] of 33600 nM. The GI50 [50] was 251 nM, the TGI [50] was over 39900 nM and the GI50 [51] was 442 nM. It also gave a TGI [51] of over 100000 nM, a GI50 [52] of 7750 nM and a TGI [52] of over 74100 nM. For the same compound, the GI50 [53] was 123 nM, the TGI [53] was 808 nM and the GI50 [54] was 377 nM. It also gave a TGI [54] of 16200 nM, a GI50 [55] of 7690 nM and a TGI [55] of over 100000 nM. For the same compound, the GI50 [56] was 4220 nM, the TGI [56] was over 100000 nM and the GI50 [57] was 1920 nM. For the same compound, the TGI [57] was 24800 nM, the GI50 [58] was 4760 nM and the TGI [58] was 21400 nM. For the same compound, the GI50 [59] was 1230 nM and the TGI [59] was 17300 nM.
